According to patent US20250288564A1, “DIHYDROBERBERINE COMPOSITION AND USE THEREOF” (NANJING NUTRABUILDING BIO-TECH CO., LTD., priority 2022, published 2025):

Key:
[1] = test system: acute colitis model; test: DSS-induced acute colitis model in mice (DAI, colon pathology); type: in vivo; conditions: 3% DSS for 9 days, treatment group DSS+DHB, DHB 50 mg/kg daily
Text: Experimental method: Thirty 4-6-week-old mice, 15 males and 15 females, were selected for adaptive feeding for 7 days in advance. They were randomly divided into control group (CON), model group (DSS) and treatment group (DSS+DHB), with 10 mice in each group. The model group and the treatment group were gavaged with 3% dextran sodium sulfate (DSS) for 9 days to establish an acute colitis model, while the control group was gavaged with the same amount of normal saline every day. The weight, feces and rectal bleeding of mice were recorded every day, and the disease activity index (DAI) was used to evaluate the condition of colitis. The DAI value was obtained by adding all the scores and dividing them by three. Mice in the treatment group were given DHB at a daily dose of 50 mg/kg. On the 10th day, blood was taken from the orbit of each mouse, and then it was killed. Colon tissues were collected, fixed in 4% paraformaldehyde solution and stored at −80° C. for subsequent analysis. The pathological damage of colon tissue was examined by hematoxylin-eosin staining and Alxin blue staining. [table]

[2] = test system: Akkermansia muciniphila; test: Relative abundance of microbiota in feces of volunteers (16s sequencing); type: in vivo, human; conditions: 200 mg DHB every day, 3-week experiment, FIG. 1A
Experimental: (§1) Experimental method: Six volunteers (three males and three females) were recruited to obtain relevant health data, and it was confirmed that they had not taken antibiotics or probiotics in the previous three months, and were healthy and had no chronic diseases. A 3-week experiment was designed. Volunteers had 30 minutes of moderate-intensity exercise every day, and ensured regular work and rest, reasonable diet, and no smoking or drinking. They were administered 200 mg of dihydroberberine (DHB) every day, and fecal samples were collected on days 0, 7, 14 and 21 of the experiment, and the corresponding bacterial species were analyzed. Before the experiment, fecal samples of each volunteer were collected, and species information was obtained through genomic DNA extraction, PCR amplification of 16s RNA and database comparison.

[3] = test system: Desulfovibrio; test: as above; type: in vivo, human; conditions: 200 mg DHB every day, 3-week experiment, FIG. 1B
Experimental: as §1

[4] = test system: Bacteroides fragilis; test: as above; type: in vivo, human; conditions: 200 mg DHB every day, 3-week experiment, FIG. 1A
Experimental: as §1

[5] = test system: Faecalibacterium Prausnitzii; test: as above; type: in vivo, human; conditions: 200 mg DHB every day, 3-week experiment, FIG. 1A
Experimental: as §1

[6] = test system: Klebsiella pneumoniae; test: as above; type: in vivo, human; conditions: 200 mg DHB every day, 3-week experiment, FIG. 1B
Experimental: as §1

[7] = test system: Lactobacillus acidophilus; test: as above; type: in vivo, human; conditions: 200 mg DHB every day, 3-week experiment, FIG. 1A
Experimental: as §1

[8] = test system: Akkermansia muciniphila; test: Relative abundance of microbiota in feces of mice (16S rDNA sequencing); type: in vivo; conditions: DHB 100 mg/kg gavage once a day for 4 weeks, FIG. 2A
Text: (§2) Experimental method: After a week of adaptive feeding, mice were randomly divided into four groups according to sex and weight: group 1, control group, n=10; group 2, normal+DHB group, n=10; group 3, high-fat-high-sugar group, n=10; and group 4, high-fat-high-sugar+DHB group, n=10. High-fat-high-sugar group (group 3) and high-fat-high-sugar+DHB group (group 4) were given high-fat and high-sugar feed (containing 35% fat, 18% protein and 47% carbohydrate), while the control group and normal+DHB group were given normal feed. After eight weeks, blood was taken from the tail vein to detect blood sugar, and the groups 3 and 4 were given high-fat and high-sugar feed, while the control group and normal+DHB group (groups 1 and 2) were given basic feed until the end of the experiment. Then, groups 2 and 4 were administered DHB at 100 mg/kg (dissolved in physiological saline) for 4 weeks, and fecal samples were taken on days 0, 14 and 28. The maximum dose of DHB refers to the usual dose of daily health care, and the dosage is set to 200 mg/kg. The specific gavage scheme is: dissolve DHB in water and gavage once a day according to the weight of mice, while the control group gavage with the same amount of pure water. Analysis of the relative abundance of intestinal flora: Four samples of mouse feces were randomly taken from each group. The samples were first extracted for DNA, 16S rDNA was amplified by PCR, and then sequenced. After completing the classification of data species, the relative abundance of each species was analyzed.

[9] = test system: Desulfovibrio; test: as above; type: in vivo; conditions: DHB 100 mg/kg gavage once a day for 4 weeks, FIG. 2B
Text: as §2

[10] = test system: Bacteroides fragilis; test: as above; type: in vivo; conditions: DHB 100 mg/kg gavage once a day for 4 weeks, FIG. 2A
Text: as §2

[11] = test system: Faecalibacterium Prausnitzii; test: as above; type: in vivo; conditions: DHB 100 mg/kg gavage once a day for 4 weeks, FIG. 2A
Text: as §2

[12] = test system: Klebsiella pneumoniae; test: as above; type: in vivo; conditions: DHB 100 mg/kg gavage once a day for 4 weeks, FIG. 2B
Text: as §2

[13] = test system: Lactobacillus acidophilus; test: as above; type: in vivo; conditions: DHB 100 mg/kg gavage once a day for 4 weeks, FIG. 2A
Text: as §2

[14] = test system: Bacteroides and Firmicutes; test: Abundance ratio of Bacteroides and Firmicutes in mouse feces; type: in vivo, mice; conditions: DHB 100 mg/kg, 4 weeks, FIG. 3
Text: as §2, with “Analysis of the relative abundance of intestinal flora: Four samples of mouse feces were randomly taken from each group. The samples were first extracted for DNA, 16S rDNA was amplified by PCR, and then sequenced.” left out, “analyzed. […]” for “analyzed.”

[15] = compared with berberine, background statement; cited from earlier work
[16] = test system: Akkermansia muciniphila; test: Absolute amount of Akkermansia muciniphila in mouse feces (qPCR); type: in vivo, mice; conditions: DHB 100 mg/kg, 4 weeks, FIG. 4
Text: Experimental method: After a week of adaptive feeding, mice were randomly divided into four groups according to sex and weight: group 1, control group, n=10; group 2, normal+DHB group, n=10; group 3, high-fat-high-sugar group, n=10; and group 4, high-fat-high-sugar+DHB group, n=10. High-fat-high-sugar group (group 3) and high-fat-high-sugar+DHB group (group 4) were given high-fat and high-sugar feed (containing 35% fat, 18% protein and 47% carbohydrate), while the control group and normal+DHB group were given normal feed. After eight weeks, blood was taken from the tail vein to detect blood sugar, and the groups 3 and 4 were given high-fat and high-sugar feed, while the control group and normal+DHB group (groups 1 and 2) were given basic feed until the end of the experiment. […]
Determination of absolute amount of Akkermansia muciniphila in mouse feces: The colon feces of mice were collected, the absolute amount of Akkermansia mucinipha in each gram of feces was detected, and the influence of the composition of the invention on the absolute amount of Akkermansia mucinipha in the intestines of normal and high-fat-high-sugar mice was analyzed. […] The data is expressed as the logarithm of the number of bacteria per gram of feces (Log 10), and the results are shown in FIGS. 2-4.

[17] = high-fat-high-sugar mice: group 4 (+DHB) compared with group 3
[18] = normal feed mice: group 2 (normal+DHB) compared with group 1 (control)

Compound: COc1ccc2c(c1OC)CN1CCc3cc4c(cc3C1=C2)OCO4 [dihydroberberine]
- intestinal pathological changes (colon tissue, hematoxylin-eosin and Alxin blue staining) ([1]; FIGS. 5A-5C): significantly improved the integrity of crypt structure
- DAI score (disease activity index) ([1]; model group close to 3): about 1.1
- increase of relative abundance level of Akkermansia muciniphila [2]: 0.09%
- decrease of relative abundance level of Desulfovibrio [3]: 0.14%
- increase of relative abundance level of Bacteroides fragilis [4]: 0.11%
- increase of relative abundance level of Faecalibacterium Prausnitzii [5]: 0.15%
- decrease of relative abundance level of Klebsiella pneumoniae [6]: 0.12%
- increase of relative abundance level of Lactobacillus acidophilus [7]: 0.20%
- increase of relative abundance level of Akkermansia muciniphila [8]: 0.09%
- decrease of relative abundance level of Desulfovibrio [9]: 0.08%
- increase of relative abundance level of Bacteroides fragilis [10]: 0.10%
- increase of relative abundance level of Faecalibacterium Prausnitzii [11]: 0.14%
- decrease of relative abundance level of Klebsiella pneumoniae [12]: 0.11%
- increase of relative abundance level of Lactobacillus acidophilus [13]: 0.19%
- increase of ratio of Bacteroides to Firmicutes [14, 17]: 0.51
- increase of ratio of Bacteroides to Firmicutes [14, 18]: 0.36
- water solubility relative to berberine [15]: higher water solubility
- increase of logarithm number of Akkermansia muciniphila per gram of feces [16, 17]: 0.55 order of magnitude
- increase of logarithm number of Akkermansia muciniphila per gram of feces [16, 18]: 0.65 order of magnitude
